Experimental data published in ChEMBL document CHEMBL1201862, “PubChem BioAssay data set” (2004).
Where “and” joins values, the source holds several entries; their conditions need not be identical. Identical values can stand only once. Calls of active or inactive are those of the source.

What was measured:
[1] = HEp-2 cell cytotoxicity, dose response, cytotoxicity control for RSV inhibitor project, HTS (AID 2410); format: functional; settings: human respiratory syncytial virus
[2] = molecular target: Lysosomal acid glucosylceramidase (Homo sapiens, UniProt P04062); assay: Dose response cell-based high throughput screening assay to identify enhancers of beta-glucosidase activity. [Related pubchem assays: 784 ]; format: functional
[3] = molecular target: DNA damage-inducible transcript 3 protein (Mus musculus, UniProt P35639); format: functional, Cricetulus griseus
[4] = molecular target: T1, Apoptotic protease-activating factor 1 (Homo sapiens, UniProt O14727); format: functional
T1 sequence (O14727 whole entry): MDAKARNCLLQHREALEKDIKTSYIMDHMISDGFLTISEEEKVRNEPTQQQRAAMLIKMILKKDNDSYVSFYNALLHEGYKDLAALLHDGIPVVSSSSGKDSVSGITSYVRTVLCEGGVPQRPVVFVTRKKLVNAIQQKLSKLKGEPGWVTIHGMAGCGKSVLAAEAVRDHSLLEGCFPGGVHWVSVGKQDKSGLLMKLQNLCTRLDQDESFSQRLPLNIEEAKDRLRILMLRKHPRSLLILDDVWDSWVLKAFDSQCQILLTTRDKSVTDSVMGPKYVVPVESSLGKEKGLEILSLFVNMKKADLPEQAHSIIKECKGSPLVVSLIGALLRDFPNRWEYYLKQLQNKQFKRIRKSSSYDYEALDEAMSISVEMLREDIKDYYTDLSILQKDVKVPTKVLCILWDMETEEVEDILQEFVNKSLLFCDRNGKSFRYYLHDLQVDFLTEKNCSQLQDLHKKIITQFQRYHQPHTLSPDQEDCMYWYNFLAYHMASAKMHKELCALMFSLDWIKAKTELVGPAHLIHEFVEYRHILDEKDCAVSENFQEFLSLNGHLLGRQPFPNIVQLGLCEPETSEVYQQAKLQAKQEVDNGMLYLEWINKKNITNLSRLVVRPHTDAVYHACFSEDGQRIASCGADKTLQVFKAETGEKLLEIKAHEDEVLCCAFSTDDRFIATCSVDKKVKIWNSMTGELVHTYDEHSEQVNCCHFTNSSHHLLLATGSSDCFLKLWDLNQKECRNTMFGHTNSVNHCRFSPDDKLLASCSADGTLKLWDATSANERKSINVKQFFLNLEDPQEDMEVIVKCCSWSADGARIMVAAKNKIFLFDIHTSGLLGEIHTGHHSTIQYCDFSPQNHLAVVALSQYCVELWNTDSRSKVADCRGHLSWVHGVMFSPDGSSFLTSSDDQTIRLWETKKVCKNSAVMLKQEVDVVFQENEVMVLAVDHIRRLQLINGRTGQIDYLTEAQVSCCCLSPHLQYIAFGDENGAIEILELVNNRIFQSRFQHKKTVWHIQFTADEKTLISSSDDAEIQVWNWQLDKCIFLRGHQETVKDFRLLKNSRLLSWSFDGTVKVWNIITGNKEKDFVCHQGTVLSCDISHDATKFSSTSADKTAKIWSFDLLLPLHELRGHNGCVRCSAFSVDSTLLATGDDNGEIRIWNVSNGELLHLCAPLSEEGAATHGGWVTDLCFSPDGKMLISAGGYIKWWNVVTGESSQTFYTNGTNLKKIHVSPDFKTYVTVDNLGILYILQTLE

[5] = molecular target: RNA-editing ligase 1, mitochondrial (Trypanosoma brucei brucei, UniProt P86926); assay: TbREL1 ligase inhibitors, dose response, biochemical, fluorescence, Trypanosoma brucei (AID 1117295); format: functional
[6] = molecular target: T2, Runt-related transcription factor 1/Core-binding factor subunit beta (Homo sapiens, UniProt Q01196+Q13951); assay: inhibitors of RUNX1 Runt–CBFb-SMMHC binding, primary screen, biochemical, FRET, Cerulean-Runt, Venus-CBFb-SMMHC, uHTS (AID 1434); format: protein assay;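 note: partner is the CBFb-SMMHC leukemia fusion protein rather than wild-type CBFb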
[7] = molecular target: T2, Runt-related transcription factor 1/Core-binding factor subunit beta; assay: inhibitors of RUNX1 Runt–CBFb-SMMHC binding, biochemical, TR-FRET (AID 1438); format: protein assay
X-box-binding protein 1 = X-box-binding protein 1 (Homo sapiens, UniProt P17861); format: functional, Cricetulus griseus;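 note: confirmatory dose-response counter-screen serving a CHOP assay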
[8] = molecular target: T3, Replicative DNA helicase DnaB (Mycobacterium tuberculosis, UniProt P9WMR3); assay: DnaB intein splicing inhibitors, dose response, biochemical, cell-free fluorescence (AID 449749); format: functional
T3 sequence (P9WMR3 whole entry): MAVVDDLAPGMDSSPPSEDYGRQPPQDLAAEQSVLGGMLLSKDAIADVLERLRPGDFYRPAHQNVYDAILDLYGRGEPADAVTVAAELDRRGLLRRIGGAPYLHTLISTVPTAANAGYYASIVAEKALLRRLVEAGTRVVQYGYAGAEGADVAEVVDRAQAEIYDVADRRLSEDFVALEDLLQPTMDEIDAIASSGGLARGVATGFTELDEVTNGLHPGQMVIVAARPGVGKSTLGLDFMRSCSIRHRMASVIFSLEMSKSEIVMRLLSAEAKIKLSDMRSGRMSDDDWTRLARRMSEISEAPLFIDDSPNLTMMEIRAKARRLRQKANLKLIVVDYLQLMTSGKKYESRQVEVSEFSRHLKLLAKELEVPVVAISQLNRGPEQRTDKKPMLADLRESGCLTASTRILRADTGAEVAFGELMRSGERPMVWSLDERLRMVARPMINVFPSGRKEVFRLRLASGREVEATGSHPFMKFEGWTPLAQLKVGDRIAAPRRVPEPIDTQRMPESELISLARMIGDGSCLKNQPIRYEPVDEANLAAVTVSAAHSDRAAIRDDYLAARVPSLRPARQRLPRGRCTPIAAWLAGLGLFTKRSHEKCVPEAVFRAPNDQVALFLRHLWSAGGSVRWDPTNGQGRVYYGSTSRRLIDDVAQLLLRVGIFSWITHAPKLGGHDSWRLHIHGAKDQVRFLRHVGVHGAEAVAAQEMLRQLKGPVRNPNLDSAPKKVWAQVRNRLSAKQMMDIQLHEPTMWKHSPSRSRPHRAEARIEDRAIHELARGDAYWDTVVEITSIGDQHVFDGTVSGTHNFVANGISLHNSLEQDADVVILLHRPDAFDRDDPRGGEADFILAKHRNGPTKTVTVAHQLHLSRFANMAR

Protein RecA = molecular target: T4, Protein RecA (Mycobacterium tuberculosis, UniProt P9WHJ3); assay: Fluorescence Cell-Free Homogeneous Dose Retest to Identify Inhibitors of RecA-Intein Splicing Activity. [Related pubchem assays (depositor defined):AID2097, AID2223, AID489010, AID492950]; format: functional
T4 sequence (P9WHJ3 whole entry): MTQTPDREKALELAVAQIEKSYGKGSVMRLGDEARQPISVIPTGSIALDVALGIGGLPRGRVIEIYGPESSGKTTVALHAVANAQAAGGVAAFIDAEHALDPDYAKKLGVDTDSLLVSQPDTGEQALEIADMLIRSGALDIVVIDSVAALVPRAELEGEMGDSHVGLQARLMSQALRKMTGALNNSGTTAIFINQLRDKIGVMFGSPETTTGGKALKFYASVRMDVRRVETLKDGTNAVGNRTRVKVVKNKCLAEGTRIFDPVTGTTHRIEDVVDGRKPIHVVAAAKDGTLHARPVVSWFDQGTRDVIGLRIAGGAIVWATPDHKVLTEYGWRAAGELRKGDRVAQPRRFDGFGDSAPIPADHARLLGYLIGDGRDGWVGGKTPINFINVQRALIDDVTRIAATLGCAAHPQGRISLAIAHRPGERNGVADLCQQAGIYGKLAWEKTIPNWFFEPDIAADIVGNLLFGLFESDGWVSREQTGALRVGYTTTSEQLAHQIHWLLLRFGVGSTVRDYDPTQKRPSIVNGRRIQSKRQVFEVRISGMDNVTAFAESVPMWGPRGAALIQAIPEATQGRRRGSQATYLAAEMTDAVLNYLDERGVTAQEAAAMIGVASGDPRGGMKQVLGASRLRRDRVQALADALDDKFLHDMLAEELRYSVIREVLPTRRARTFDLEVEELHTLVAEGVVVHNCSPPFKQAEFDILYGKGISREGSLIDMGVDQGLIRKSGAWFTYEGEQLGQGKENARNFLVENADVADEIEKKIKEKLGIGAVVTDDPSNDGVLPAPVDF

[9] = tested on: Streptococcus sp. 'group A'; assay: growth inhibition of control SK(-) GAS strain, dose response, counter-screen for streptokinase expression inhibitor project, luminescence, kanamycin, BacTiterGlo, confirmation (AID 1900); format: functional, organism-based
Streptokinase A = molecular target: T5, Streptokinase A (Streptococcus pyogenes serotype M1, UniProt P10520); assay: S. pyogenes streptokinase expression inhibitors, potency, dose response, plasminogen activation absorbance, OD405 (AID 1914); format: functional, Streptococcus pyogenes M1 GAS;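 note: secreted streptokinase activity via plasminogen activation per viability signal from cell pellet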
T5 sequence (P10520 whole entry): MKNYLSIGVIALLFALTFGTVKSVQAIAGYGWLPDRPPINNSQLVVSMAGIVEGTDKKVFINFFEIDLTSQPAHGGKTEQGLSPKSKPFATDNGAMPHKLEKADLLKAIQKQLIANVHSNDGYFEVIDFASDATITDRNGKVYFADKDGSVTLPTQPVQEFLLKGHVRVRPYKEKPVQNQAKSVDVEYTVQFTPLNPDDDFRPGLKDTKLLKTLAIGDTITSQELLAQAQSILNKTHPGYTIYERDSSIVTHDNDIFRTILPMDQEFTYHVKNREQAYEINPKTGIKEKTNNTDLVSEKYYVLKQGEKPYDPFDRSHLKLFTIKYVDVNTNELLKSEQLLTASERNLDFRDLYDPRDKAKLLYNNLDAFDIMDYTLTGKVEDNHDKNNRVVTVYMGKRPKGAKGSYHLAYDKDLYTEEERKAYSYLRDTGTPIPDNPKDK

Streptococcus = assay: Group A Streptococcus viability loss, dose response, counter-screen for streptokinase expression inhibitor project, luminescence, BacTiterGlo (AID 1915); format: functional, organism-based;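 note: potency for reduction of bacterial viability or growth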
Vero = assay: cells; format: functional; settings: Chlorocebus sabaeus
Troponin, cardiac muscle = Troponin, cardiac muscle (Homo sapiens, UniProt P19429+P45379+P63316); assay: Fluorescence-based biochemical high throughput dose response assay for activators of the calcium sensitivity of cardiac Regulated Thin Filaments (RTF). [Related pubchem assays (depositor defined):AID493008, AID493018, AID504382, AID504383]; format: protein-complex assay
[10] = cytotoxicity in HEK-293T cells, dose response, cytotoxicity control for BCR NF-kB inhibitor project, luminescence, B-cell screen hits (AID 489021); format: functional, cell-based;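 note: HEK-293T cells carrying an NF-kB luciferase reporter; cells exposed to compound for about 14 hours before viability readout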
[11] = cytotoxicity in HPDE-C7 cells, cell-based, fluorescence, HTS (AID 430); format: functional; settings: Homo sapiens
[12] = cytotoxicity in KRAS-transformed pancreatic duct cells, primary screen, cell-based, fluorescence, HTS (AID 431); format: functional; settings: Homo sapiens;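 note: cell line used: HPDE-C7K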
[13] = growth suppression of PTEN-null colon cells, dose response, cell-based, HCT116 PTEN knockout (AID 1047); format: functional;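 note: HCT116 colon tumor cells with PTEN knocked out; cells exposed to compound for 60 hours before readout; potency for loss of cell viability measured by luminescence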
[14] = growth suppression of beta-catenin-knockout colon cells, dose response, cell-based, HCT116, human colon tumor (AID 1045); format: functional;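 note: HCT116 colon tumor cells with beta catenin knocked out; cells exposed to compound for 60 hours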
[15] = Luminescence Cell-Based Dose Retest to Confirm Inhibitors of Cancer Stem Cells. [Related pubchem assays (depositor defined):AID2717, AID2721]; format: functional; settings: Homo sapiens
Cytochrome P450 1A2 = molecular target: T6, Cytochrome P450 1A2 (Homo sapiens, UniProt P05177);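 note: PubChem cytochrome P450 panel assay, CYP1A2 panel member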
T6 sequence (P05177 whole entry): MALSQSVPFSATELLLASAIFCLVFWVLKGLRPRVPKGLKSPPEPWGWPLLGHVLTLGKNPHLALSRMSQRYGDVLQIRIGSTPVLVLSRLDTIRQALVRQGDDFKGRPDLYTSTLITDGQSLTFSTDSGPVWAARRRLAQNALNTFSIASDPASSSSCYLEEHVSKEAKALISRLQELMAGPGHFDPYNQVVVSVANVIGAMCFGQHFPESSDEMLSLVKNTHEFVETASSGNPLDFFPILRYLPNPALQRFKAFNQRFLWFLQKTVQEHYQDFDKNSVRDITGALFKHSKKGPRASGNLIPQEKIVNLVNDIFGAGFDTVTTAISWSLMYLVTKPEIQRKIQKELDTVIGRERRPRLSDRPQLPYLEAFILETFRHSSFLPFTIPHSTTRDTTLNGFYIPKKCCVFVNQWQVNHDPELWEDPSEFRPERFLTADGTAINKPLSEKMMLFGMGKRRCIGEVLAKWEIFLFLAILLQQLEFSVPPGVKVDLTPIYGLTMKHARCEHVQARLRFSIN

Cytochrome P450 3A4 = Cytochrome P450 3A4 (Homo sapiens, UniProt P08684);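 note: CYP3A4 tested as one member of a cytochrome P450 panel screen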

CCC(C)NC(=O)c1c(N)n(CC2CCCO2)c2nc3ccccc3nc12 (configuration not stated)
CC50 [1]: 20.3 µM (active) | EC50 [2]: > 50 µM (not active) | Absolute IC50 (CHOP) [3]: 10 µM | IC50 [4]: 18.8 µM (active) | IC50 [5]: 27.7 µM (inactive)

Cc1cc(=O)oc2c3c4c(cc12)OCCN4CCC3
IC50 [6]: < 0.195 µM (inactive) | IC50 [7]: > 100 µM (inactive)

CC1(C)CC(C(CCN(Cc2ccccc2)C(=O)c2ccco2)c2ccc(F)cc2)CCO1 (configuration not stated)
Absolute IC50 (XBP1) (X-box-binding protein 1): 10 µM | AC50 [8]: 6.07 µM (active) | EC50 (Protein RecA): 20.9 µM (active)

O=C(CN1c2ccccc2Sc2ccccc21)NNC(=O)Nc1cccc(Cl)c1
EC50 [9]: 4.41 µM (active) | EC50 (Streptokinase A): > 150 µM (not active) | EC50 (Streptococcus): 18.5 µM (active) | Absolute IC50 (CHOP) [3]: 10 µM | CC50 (Vero): 19 µM (active)

O=C(Nc1ccc(Cl)cn1)C1COc2ccccc2O1 (configuration not stated)
EC50 (Troponin, cardiac muscle): > 71.5 µM (inactive)

CCOc1ccc(-c2nnc(SCC(=O)NC3CC3)o2)cc1
IC50 [10]: > 80 µM (inactive)

Fc1ccc(-c2n[nH]cc2CN(CC2CCC2)CC2CCCO2)c(F)c1 (configuration not stated)
EC50 (Troponin, cardiac muscle): > 71.5 µM (inactive)

C(=N\Nc1nc(Nc2ccccc2)nc(Nc2ccccc2)n1)/c1cccnc1
IC50 [10]: 41.3 µM (inactive)

O=c1[nH]c2ccccc2n1C1CCN(CCCC(c2ccc(F)cc2)c2ccc(F)cc2)CC1 [PIMOZIDE]
EC50 [11]: 13.6 µM (active) | EC50 [12]: 18.9 µM (active) | EC50 [13]: 6.38 µM (active) | EC50 [14]: 7.54 µM (active) | AC50 [15]: 3.79 µM (active) | Absolute IC50 (XBP1) (X-box-binding protein 1): < 10 µM | AC50 (Cytochrome P450 1A2): 31.6 µM (inconclusive) and 15.8 µM (inconclusive) | AC50 (Cytochrome P450 3A4): inconclusive
